Laboratory results published in patent publication US20250269043A1, “TARGETED BIFUNCTIONAL DEGRADERS” (YALE UNIVERSITY, priority 2019, published 2025).
Values joined by “and” are separate entries in the source; they are usually repeats but may differ in a detail not shown here. Equal values may be shown once.

How the values were obtained:
[1] = biological target: T1, ASGPR on the surface of HepG2 cells and α-DNP antibody (Homo sapiens, UniProt P07306+P07307); test: DNP-GN3-mediated ternary complex formation: association of fluorescently labeled α-DNP antibody with HepG2 cells in suspension; format: cell-based; conditions: for concentration of DNP-GN3 eliciting half-maximal fluorescence association: FIG. 86A
T1 sequence (P07306 1-291): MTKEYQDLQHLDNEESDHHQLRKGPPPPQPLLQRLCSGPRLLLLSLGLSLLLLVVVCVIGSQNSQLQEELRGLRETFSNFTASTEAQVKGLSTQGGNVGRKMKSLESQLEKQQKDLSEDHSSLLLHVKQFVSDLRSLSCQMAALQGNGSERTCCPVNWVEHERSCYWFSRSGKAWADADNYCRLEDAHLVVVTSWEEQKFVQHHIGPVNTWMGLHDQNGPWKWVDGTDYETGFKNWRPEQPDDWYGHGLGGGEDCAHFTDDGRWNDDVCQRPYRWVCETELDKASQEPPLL
T1 sequence (P07307 1-311): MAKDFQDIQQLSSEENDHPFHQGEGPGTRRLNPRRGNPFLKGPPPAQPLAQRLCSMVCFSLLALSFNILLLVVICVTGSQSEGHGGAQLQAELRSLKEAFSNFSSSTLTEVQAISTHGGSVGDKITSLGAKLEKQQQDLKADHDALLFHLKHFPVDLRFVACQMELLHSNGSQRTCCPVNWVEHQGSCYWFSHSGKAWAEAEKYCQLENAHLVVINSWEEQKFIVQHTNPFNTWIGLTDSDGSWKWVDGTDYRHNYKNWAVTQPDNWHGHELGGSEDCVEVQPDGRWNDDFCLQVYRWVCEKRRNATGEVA
Excerpt: It was investigated whether DNP-GN3 could mediate the formation of a ternary complex between a fluorescently labeled α-DNP antibody and ASGPR on the surface of immortalized human hepatocyte HepG2 cells in suspension. […] The observed bell-shaped response to DNP-GN3 concentration is consistent with the prozone effect commonly observed in systems wherein a ternary complex is formed.

[2] = Tolerability in mice (body weight, serum AST and ALT); format: in vivo
Experimental: FIGS. 93A-93C illustrate that DNP-GN3 and DNP-OH3 are not toxic to mice at all tested concentrations. FIG. 93A: mouse body weight following treatment with DNP-GN3 or DNP-OH3. Statistical differences were analyzed by T test. FIG. 93B: levels of aspartate transaminase (AST) in treated mice. Dashed lines represent the normal range. FIG. 93C: levels of alanine transaminase (ALT) in treated mice. Dashed lines represent the normal range.

HepG2 cells [3] = test: DNP-GN3-mediated endocytosis of fluorescently labeled α-DNP antibody by adherent HepG2 cells; format: cell-based, human; conditions: six and twelve hours; FIG. 87A-87B
human MIF = biological target: T2, human MIF (Homo sapiens, UniProt P14174); test: Depletion of human MIF from cell culture supernatant (sandwich ELISA); format: cell-based; conditions: for removal of MIF from supernatant: after 48 hours, FIG. 129
T2 sequence (P14174 2-115 limits assumed): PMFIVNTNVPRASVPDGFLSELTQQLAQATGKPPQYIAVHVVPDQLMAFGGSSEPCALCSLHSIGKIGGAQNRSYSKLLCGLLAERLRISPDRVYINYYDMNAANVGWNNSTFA
Experimental: The ability of bifunctional MIF-binding molecules to mediate the depletion of human MIF from cell culture was investigated. In these assays, human MIF was present at a concentration of 100 nM, and a sandwich ELISA assay was utilized to measure the concentration of human MIF remaining in the cell culture supernatant. The closely related bifunctional molecules MIF-GN3, MIF-PEG2-GN3, and MIF-PEG4-GN3 were used, as well as the structurally dissimilar molecule MIF-NVS-PEG3-GN3. […] Based on the ease of its synthesis and its efficacy in this experiment, MIF-GN3 was utilized for further studies. It was next investigated whether the MIF inhibitor 3w mediates MIF depletion from cell culture supernatant. […] When cells were treated with 3w, no depletion of exogenous MIF protein was observed after 24 hours (FIG. 128B).
Bifunctional molecules containing optimized ASGPR-binding motifs are also capable of mediating MIF depletion from cell culture supernatant (FIG. 129). The MIF-binding molecule MIF-AF1, which contains only a single ASGPR-binding sugar, was not effective at mediating depletion of MIF from supernatant at any concentration tested. It is hypothesized that this is due to the compound's low predicted affinity for ASGPR (μM range). […] At a concentration of either 200 nM or 1 μM, MIF-AF2 mediated nearly 100%/o depletion of MLF from the cell culture supernatant after 48 hours. […] In contrast to these molecules, which utilize optimized synthetic ASGPR ligands, the GalNAc-based molecule MIF-GN3 mediated only 67.0% and 56.0% removal of MIF from supernatant after 48 hours at concentrations of 1 μM and 200 nM, respectively. […] At a concentration of 40 nM (4.0 pmol of molecule), MIF-AF3 mediates the removal of 83.2% of MIF present in the cell culture supernatant, or 8.32 pmol of human MIF protein. Therefore, it was concluded that under the conditions of this experiment, MIF-AF3 mediates the depletion of 2.08 molar equivalents of MIF protein.

HepG2 cells [4] = test: MIF-GN3-mediated endocytosis of Alexa 488-labeled human MIF by HepG2 cells; conditions: FIG. 131
Experimental: Human MIF protein was fluorescently labeled with Alexa 488 NHS ester, then incubated with HepG2 cells in the presence of varying levels of MIF-GN3.
The ability of MIF-GN3 to mediate MIF endocytosis over a wide range of target protein concentrations was assessed.
Next, inhibitors of various endocytic pathways were utilized to determine if MIF-GN3 mediates MIF endocytosis in a manner consistent with ASGPR (FIG. 132).

mouse MIF = biological target: T3, mouse MIF (Mus musculus, UniProt P34884); test: Depletion of endogenous mouse MIF in vivo; parameters: species or system mice; conditions: single dose of 10 mpk; FIG. 137
T3 construct: mediate the depletion of endogenous mouse MIF in vivo; from tissue; host or cells: mouse serum, in vivo
Experimental: In order to confirm that mice injected with one or ten mpk MIF-GN3 had received the injection, and that the observed stability of MIF concentrations in MIF-GN3 treated mice was not the result of injection error, 200 μg of α-DNP antibody was coinjected with the MIF protein in this experiment. […] An investigation of the ability of MIF-GN3 to mediate the depletion of endogenous mouse MIF in vivo was next undertaken. Mice were treated with either PBS or 10 mpk of MIF-GN3. […] One possible explanation for this finding is that MIF protein may be synthesized rapidly, and any increase in degradation mediated by MIF-GN3 may not be of a large enough magnitude to impact the protein's level in serum.

Row | SMILES | concentration of maximal ternary complex formation ([1]; DNP-GN3) | concentration of DNP-GN3 eliciting half-maximal fluorescence association ([1]; higher of the two half-maximal concentrations of the bell-shaped response (prozone effect)) [µM] | concentration of DNP-GN3 eliciting half-maximal fluorescence association ([1]; lower of the two half-maximal concentrations of the bell-shaped response) [µM] | differences in body weight or serum liver enzyme levels between control and treatment groups ([2]; doses up to 100 mpk, FIGS. 93A-93C) | well-tolerated dose ([2]; mice) [mpk] | intracellular fluorescence of adherent HepG2 cells (HepG2 cells [3]) | removal of MIF from supernatant (human MIF; 200 nM) [%] | removal of MIF from supernatant (human MIF; 1 μM) [%] | depletion of human MIF from cell culture supernatant (human MIF; human MIF 100 nM, 24 hours, FIG. 128A) | fluorescence of cells relative to cells not treated with bifunctional molecule (HepG2 cells [4]; MIF protein 10 nM, 200 nM MIF-GN3) [fold] | MIF uptake at high concentration compared to lower concentrations (HepG2 cells [4]; MIF protein 100 nM, MIF-GN3 5.00 μM) | mouse MIF concentrations in serum (mouse MIF)
1 | CC(=O)NC1C(OCCOCCOCCNC(=O)CCOCC(COCCC(=O)NCCOCCOCCOC2OC(CO)C(O)C(O)C2NC(C)=O)(COCCC(=O)NCCOCCOCCOC2OC(CO)C(O)C(O)C2NC(C)=O)NC(=O)CNC(=O)COCCOCCOCCNc2ccc([N+](=O)[O-])cc2[N+](=O)[O-])OC(CO)C(O)C1O (stereo not drawn) [DNP-GN3] | 20 nM and 40 nM | 0.12 | 0.0074 | no significant differences | ≤ 100 | dependent on the concentration of both DNP-GN3 and α-DNP antibody |  |  |  |  |  | 
2 | CC(=O)N[C@H]1[C@H](OCCOCCOCCNC(=O)CCOCC(COCCC(=O)NCCOCCOCCO[C@@H]2O[C@H](CO)[C@H](O)[C@H](O)[C@H]2NC(C)=O)(COCCC(=O)NCCOCCOCCO[C@@H]2O[C@H](CO)[C@H](O)[C@H](O)[C@H]2NC(C)=O)NC(=O)CNC(=O)CCCOc2ccc3nc(-c4cn(-c5ccc(O)c(F)c5)nn4)ccc3c2)O[C@H](CO)[C@H](O)[C@@H]1O [MIF-GN3] |  |  |  |  |  |  | 56.0 | 67.0 | effective | 4 | slight decrease in MIF uptake | No significant decrease
